# In patent publication US11524945B2, “Compounds for treating ILK-mediated diseases” (The Cleveland Clinic Foundation, priority 2018, dated 2022):
# Like-named read-outs stand apart in the source and are kept apart here.
# Tests used:
# [1] = Stability in mouse plasma; type: in vitro ADME
# [2] = Permeability in Caco2 cell line; type: in vitro ADME; conditions: human
# [3] = test system: MCF10a cells; assay: Proliferation of normal breast MCF10a cells; type: cell-based; conditions: compounds at final 2 μM, FIG. 5 panel A
# Procedure: Cells were seeded at 20,000 cells/ml in 12 well plates in complete media. On day 3, the compounds were added at final 2 μM and the cells were counted every 3 days. […] Cells were seeded at 10,000 cells/ml in 12 well plates in complete media. The compounds were added at final 2 μM on day 2 and the cells were counted every 2 days.
# [4] = target: CYP 1A2 (Homo sapiens (Human), UniProt P05177); assay: CYP inhibition in human liver microsomes, 1A2; type: in vitro ADME
# Chain of CYP 1A2 (P05177 whole entry): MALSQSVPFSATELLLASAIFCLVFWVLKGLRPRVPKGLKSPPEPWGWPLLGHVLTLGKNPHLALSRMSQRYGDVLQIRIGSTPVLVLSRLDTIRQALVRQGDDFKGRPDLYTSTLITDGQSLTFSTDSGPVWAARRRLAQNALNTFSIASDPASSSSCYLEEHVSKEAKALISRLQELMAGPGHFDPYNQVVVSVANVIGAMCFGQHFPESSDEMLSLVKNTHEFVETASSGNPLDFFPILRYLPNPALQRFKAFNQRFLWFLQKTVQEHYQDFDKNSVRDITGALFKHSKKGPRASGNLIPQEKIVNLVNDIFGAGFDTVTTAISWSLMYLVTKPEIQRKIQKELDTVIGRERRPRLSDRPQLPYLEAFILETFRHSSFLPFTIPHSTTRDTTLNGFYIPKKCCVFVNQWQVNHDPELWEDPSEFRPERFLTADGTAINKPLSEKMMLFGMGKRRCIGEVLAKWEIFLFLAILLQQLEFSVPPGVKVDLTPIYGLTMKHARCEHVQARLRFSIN
# [5] = target: CYP 2E1 (Homo sapiens (Human), UniProt P05181); assay: CYP inhibition in human liver microsomes, 2E1; type: in vitro ADME
# Chain of CYP 2E1 (P05181 whole entry): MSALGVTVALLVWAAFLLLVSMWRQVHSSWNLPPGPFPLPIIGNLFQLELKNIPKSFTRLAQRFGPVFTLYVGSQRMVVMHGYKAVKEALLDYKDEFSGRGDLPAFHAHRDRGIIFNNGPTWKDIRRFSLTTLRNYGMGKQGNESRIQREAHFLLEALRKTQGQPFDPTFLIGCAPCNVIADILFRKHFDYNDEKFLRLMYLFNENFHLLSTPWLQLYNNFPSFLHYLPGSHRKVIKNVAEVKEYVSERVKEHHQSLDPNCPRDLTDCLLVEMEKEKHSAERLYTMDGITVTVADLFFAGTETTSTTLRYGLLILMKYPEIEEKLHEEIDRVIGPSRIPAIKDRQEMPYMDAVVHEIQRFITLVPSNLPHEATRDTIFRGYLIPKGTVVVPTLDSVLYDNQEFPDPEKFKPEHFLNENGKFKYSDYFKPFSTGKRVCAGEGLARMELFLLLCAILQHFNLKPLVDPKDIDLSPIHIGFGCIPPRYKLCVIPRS
# [6] = target: ILK-PINCH-Parvin (IPP) complex (Homo sapiens (Human), UniProt Q13418); assay: IPP-mediated actin bundling assay; type: biochemical; conditions: FIG. 4
# Chain of ILK-PINCH-Parvin (IPP) complex (Q13418 whole entry): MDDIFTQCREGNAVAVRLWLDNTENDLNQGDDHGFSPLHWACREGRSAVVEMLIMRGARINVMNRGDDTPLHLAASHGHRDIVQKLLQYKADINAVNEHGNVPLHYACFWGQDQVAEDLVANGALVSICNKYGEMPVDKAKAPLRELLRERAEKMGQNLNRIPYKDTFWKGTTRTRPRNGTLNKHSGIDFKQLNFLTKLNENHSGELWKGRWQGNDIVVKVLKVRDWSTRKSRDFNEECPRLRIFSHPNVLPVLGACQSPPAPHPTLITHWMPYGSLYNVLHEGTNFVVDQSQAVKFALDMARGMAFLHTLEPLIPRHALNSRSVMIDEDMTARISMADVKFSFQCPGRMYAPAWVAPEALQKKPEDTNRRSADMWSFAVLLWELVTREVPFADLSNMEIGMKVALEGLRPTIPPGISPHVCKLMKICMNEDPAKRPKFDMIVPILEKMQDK
# Chain of ILK-PINCH-Parvin (IPP) complex (P48059 whole entry partner): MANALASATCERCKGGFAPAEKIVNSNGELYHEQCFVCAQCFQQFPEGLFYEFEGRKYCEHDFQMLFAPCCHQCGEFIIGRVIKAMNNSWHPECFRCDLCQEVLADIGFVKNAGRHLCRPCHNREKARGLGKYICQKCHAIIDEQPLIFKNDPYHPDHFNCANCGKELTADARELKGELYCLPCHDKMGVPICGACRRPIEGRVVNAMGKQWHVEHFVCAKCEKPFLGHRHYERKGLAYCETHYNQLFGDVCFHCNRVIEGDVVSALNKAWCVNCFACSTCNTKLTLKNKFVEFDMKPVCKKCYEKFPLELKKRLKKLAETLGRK
# Chain of ILK-PINCH-Parvin (IPP) complex (Q9NVD7 whole entry partner): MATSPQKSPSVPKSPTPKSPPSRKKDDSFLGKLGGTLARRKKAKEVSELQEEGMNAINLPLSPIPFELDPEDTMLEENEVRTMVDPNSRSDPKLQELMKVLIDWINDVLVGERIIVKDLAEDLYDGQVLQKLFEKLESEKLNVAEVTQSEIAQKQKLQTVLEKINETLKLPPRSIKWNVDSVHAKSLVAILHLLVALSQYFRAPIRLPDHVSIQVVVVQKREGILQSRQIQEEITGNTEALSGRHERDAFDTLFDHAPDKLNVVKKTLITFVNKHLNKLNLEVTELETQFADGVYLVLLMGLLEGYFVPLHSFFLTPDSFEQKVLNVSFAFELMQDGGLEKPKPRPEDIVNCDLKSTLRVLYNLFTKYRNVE
# Description: Next, we set out to obtain in vitro evidence of Csbl-1. […] Mutation of L207 into bulky Trp in ILK abolished the MgATP binding to ILK and impaired the formation and morphology of actin bundles (Vaynberg et al., 2018). Using the same actin bundling assay, we examined the effect of Csbl-1 on the IPP-mediated actin bundling. […] In general, more bundles with smaller sizes were observed as a result of Csbl-1 interference. Csbl-1 would knock out MgATP at the ILK site and increase the local concentration of Mg^2+, which may impact the actin bundling process (Tang and Janmey, 1996, Vaynberg et al., 2018).
# [7] = target: CYP 2D6 (Homo sapiens (Human), UniProt P10635); assay: biochemical; type: in vitro ADME; conditions: Human Liver Microsomes
# Chain of CYP 2D6 (P10635 whole entry): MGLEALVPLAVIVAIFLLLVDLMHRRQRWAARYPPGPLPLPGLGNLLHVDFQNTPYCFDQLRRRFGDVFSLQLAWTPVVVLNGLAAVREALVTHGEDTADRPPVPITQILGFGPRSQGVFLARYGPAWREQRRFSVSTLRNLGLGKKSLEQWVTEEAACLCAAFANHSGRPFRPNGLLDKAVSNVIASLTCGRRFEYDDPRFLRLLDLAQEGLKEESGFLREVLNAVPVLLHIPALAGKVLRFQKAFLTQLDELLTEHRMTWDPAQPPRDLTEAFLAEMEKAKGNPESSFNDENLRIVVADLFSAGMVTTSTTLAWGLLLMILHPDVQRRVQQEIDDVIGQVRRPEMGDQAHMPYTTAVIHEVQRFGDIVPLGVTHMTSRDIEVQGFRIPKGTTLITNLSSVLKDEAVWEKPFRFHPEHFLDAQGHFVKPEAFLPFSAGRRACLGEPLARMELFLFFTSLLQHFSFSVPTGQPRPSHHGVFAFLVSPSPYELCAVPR
# [8] = target: CYP 2B6 (Homo sapiens (Human), UniProt P20813); assay: CYP inhibition in human liver microsomes, 2B6; type: in vitro ADME
# Chain of CYP 2B6 (P20813 whole entry): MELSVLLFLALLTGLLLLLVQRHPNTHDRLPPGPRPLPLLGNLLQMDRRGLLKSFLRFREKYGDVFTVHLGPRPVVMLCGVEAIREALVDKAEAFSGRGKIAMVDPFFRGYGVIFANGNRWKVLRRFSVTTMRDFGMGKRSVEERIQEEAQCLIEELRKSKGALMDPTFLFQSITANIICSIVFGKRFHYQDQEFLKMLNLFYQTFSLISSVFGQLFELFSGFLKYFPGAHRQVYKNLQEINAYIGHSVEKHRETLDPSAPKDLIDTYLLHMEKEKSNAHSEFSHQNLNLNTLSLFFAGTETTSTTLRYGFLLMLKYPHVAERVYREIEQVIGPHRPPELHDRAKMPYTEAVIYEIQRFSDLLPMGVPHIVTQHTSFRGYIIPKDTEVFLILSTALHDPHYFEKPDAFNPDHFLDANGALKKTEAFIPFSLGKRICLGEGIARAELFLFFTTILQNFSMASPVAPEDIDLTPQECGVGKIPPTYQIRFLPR
# [9] = test system: Xenograft TNBC tumors (MDA-MB231); assay: TNBC xenograft model (MDA-MB231); type: in vivo, mice; conditions: 100 mg/kg five times/week
# Procedure: The next step was to evaluate the effect of Csbl-1 in mice bearing TNBC tumors. Given the fact that higher ILK expression level is correlated with poor outcome and reduced survival for TNBC patients (FIG. 6) and the above TNBC cell-based data, we decided to test whether Csbl-1 would be effective in suppressing the TNBC tumors in mice. […] Xenograft TNBC tumors were generated using MDA-MB231 on 8 mice. […] when the tumors were ˜3 mm, 4 mice were fed with Csbl-1 at 100 mg/kg five times/week and the other 4 mice (control, no drug) had no Csbl-1 treatment. […] We also examined the Csbl-1 effect on the mouse models with human derived patient TNBC tumor (PDX).
# [10] = Stability in human plasma; type: in vitro ADME
# [11] = Stability in PBS at pH 7.4; type: physicochemical
# [12] = target: CYP 2A6 (Homo sapiens (Human), UniProt P11509); assay: CYP inhibition in human liver microsomes, 2A6; type: in vitro ADME
# Chain of CYP 2A6 (P11509 whole entry): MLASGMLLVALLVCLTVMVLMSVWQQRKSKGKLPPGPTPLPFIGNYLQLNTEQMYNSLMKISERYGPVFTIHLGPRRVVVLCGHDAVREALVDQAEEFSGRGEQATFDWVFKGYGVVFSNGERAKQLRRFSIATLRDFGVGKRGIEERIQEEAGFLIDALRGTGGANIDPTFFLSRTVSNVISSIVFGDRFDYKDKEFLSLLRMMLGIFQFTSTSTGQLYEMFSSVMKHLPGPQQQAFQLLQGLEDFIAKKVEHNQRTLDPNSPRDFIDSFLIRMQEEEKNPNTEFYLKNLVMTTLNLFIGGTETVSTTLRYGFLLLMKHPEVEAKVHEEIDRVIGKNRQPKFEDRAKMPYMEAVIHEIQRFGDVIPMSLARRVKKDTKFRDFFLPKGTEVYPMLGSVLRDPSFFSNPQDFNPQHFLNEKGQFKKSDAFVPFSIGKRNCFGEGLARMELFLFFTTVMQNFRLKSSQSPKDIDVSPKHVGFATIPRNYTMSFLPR
smiles,measurement,setting,value
C#Cc1cc(Nc2ncnc3cc(OCCOC)ccc23)cc(OCCOCC)c1 [Compound 1],Remaining Percentage (%),[1]; 0 min,100.00%
same,Remaining Percentage (%),[1]; 15 min,96.17%
same,Remaining Percentage (%),[1]; 30 min,96.17%
same,Remaining Percentage (%),[1]; 45 min,97.56%
same,Remaining Percentage (%),[1]; 60 min,96.17%
same,Remaining Percentage (%),[1]; 120 min,93.73%
same,recovery,"[2]; Caco-2, Caco2, AP-BL, read-out: Recovery (%)AP-BL",51%
same,recovery,"[2]; Caco-2, Caco2, BL-AP, read-out: Recovery (%)BL-AP",53.5%
same,efflux ratio,"[2]; Caco-2, Caco2",0.48
same,Papp A→B,"[2]; Caco-2, Caco2, A-B",154 nm/s
same,Papp B→A,"[2]; Caco-2, Caco2, B-A",73.1 nm/s
same,effect on proliferation of MCF10a cells,[3],little effect
same,IC50,[4],33.3 µM
same,IC50,[5],> 50 µM
same,effect on IPP-induced actin bundles,[6],substantial change of IPP-induced actin bundles
same,IC50,[7],27.6 µM
same,IC50,[8],> 50 µM
same,weight difference vs control mice,[9],no significant weight difference
same,Remaining Percentage (%),[10]; 0 min,100.00%
same,Remaining Percentage (%),[10]; 15 min,93.79%
same,Remaining Percentage (%),[10]; 30 min,93.79%
same,Remaining Percentage (%),[10]; 45 min,90.52%
same,Remaining Percentage (%),[10]; 60 min,90.20%
same,Remaining Percentage (%),[10]; 120 min,88.56%
same,Remaining Percentage (%),"[11]; PBS pH 7.4, 0 min",100.00%
same,Remaining Percentage (%),"[11]; PBS pH 7.4, 30 min",102.02%
same,Remaining Percentage (%),"[11]; PBS pH 7.4, 60 min",105.41%
same,Remaining Percentage (%),"[11]; PBS pH 7.4, 120 min",103.04%
same,Remaining Percentage (%),"[11]; PBS pH 7.4, 180 min",104.93%
same,Remaining Percentage (%),"[11]; PBS pH 7.4, 240 min",99.54%
same,IC50,[12],> 50 µM
